Data as given in patent US20040176466A1, “Combination therapy for the treatment of neurological disorders” (priority 2001, published 2004).
Several values for one entry are separate records, joined by “and”; a condition that tells them apart may be missing. Equal values may be shown once. Read-outs that look alike come from different tables or passages of the source.

What was measured:
[1] = Steady-state pharmacokinetics of atomoxetine alone and coadministered with paroxetine in CYP2D6 extensive metabolizers; type: in vivo; settings: both sexes, human, plasma, oral; for AUC: read-out: AUC0-τ; for Vd/F: read-out: Vz/F
Procedure: The study was conducted at the Lilly Laboratory for Clinical Research in Indianapolis, Ind. The protocol and informed consent documents were approved by the Institutional Review Board of Indiana University—Purdue University at Indianapolis. The study was conducted in accordance with the Declaration of Helsinki. All participants provided informed written consent before enrollment into the study. All volunteers were considered to be healthy on the basis of medical history, electrocardiographic findings, and routine clinical laboratory tests. Volunteers with clinically abnormal results were excluded from the study.
Only CYP2D6 extensive metabolizers, as determined by genotyping and phenotyping analyses, were entered in this study. CYP2D6 genotype was performed by PPGx (Morrisville, N.C.). DNA from whole blood samples were isolated and purified and analyzed for CYP2D6 genotype using a validated PCR ([…]) method. CYP2D6 genotype was evaluated by testing the *3, *4, *5, *6, *7, and *8 poor metabolizer (PM) alleles. If patients were homozygous for any combination of these alleles, a PM genotype was assigned; otherwise, an extensive metabolizer genotype (EM) was assigned. CYP2D6 phenotype was performed using the urine ratio of dextromethorphan/dextrorphan following an oral dose of dextromethorphan. Volunteers with a ratio greater than 0.3 were assigned a PM phenotype, and those with a ratio less than 0.3 were assigned an EM phenotype.
This was a single-blind, sequential study composed of two periods. […] Doses were administered with 240 mL of water.
Pharmacokinetic parameter estimates were calculated with noncompartmental analysis by using WinNonlin Professional Version 2.1 (Pharsight Corp, Mountain View, Calif.). The steady state maximum plasma concentration (Css,max), and the corresponding time of the maximum concentration (Tmax) were observed values. The elimination rate constant (λz) was determined as the slope of the linear regression for the terminal log-linear portion of the concentration-time curve. Terminal half-life (t1/2) was calculated as ln(2)/λz. The area under the plasma concentration time curve (AUC0-τ) over the dosing interval was estimated by the linear trapezoidal method. […] Apparent clearance (CLss/F) and apparent volume of distribution (Vz/F) were calculated as Dose/AUC0-τ and as (CLss/F)/λz, respectively.
Except for Tmax, all parameters were log transformed, and a mixed-effect analysis of variance was performed with subject as a random effect. […] For Tmax, a Wilcoxon sign-rank test was performed. Data from all subjects who received study drug are included in the pharmacokinetic and statistical analyses, except for the Tmax analyses that excluded subjects with measurements for only one treatment. Statistical analyses were performed with SAS Version 6.12 (SAS Institute, Cary, N.C.).

ADHD = assay: Study of atomoxetine versus placebo in the treatment of ADHD; type: in vivo, human
From the text: Inter-individual variability in drug metabolism poses a challenge in predicting dosing, safety, and efficacy of a drug. Pharmacokinetic factors, as well as substantial intersubject pharmacodynamic variability, have been proposed as a factor in cases of therapeutic failure of methylphenidate (DeVane, et al., Journal of Clinical Psychopharmacology, 20(3), 347 (2000)).

[2] = cited from earlier work

half-life ([1]; 20 mg, atomoxetine alone): 3.92 h
half-life ([1]; 20 mg, atomoxetine alone (Period 1), steady state, mean (range), n = 21): 4.03 h
Tmax ([1]; 20 mg, atomoxetine alone (Period 1), steady state, median (range), n = 21, read-out: Tmax): 1 h
AUC ([1]; 20 mg): 846 ng·h/mL
Vd/F ([1]; 20 mg): 2.2 L/kg
half-life ([1]; after concomitant paroxetine administration): 10 h
half-life ([1]; atomoxetine with paroxetine (Period 2), steady state, mean (range), n = 14): 11 h
Tmax ([1]; atomoxetine with paroxetine (Period 2), steady state, median (range), n = 14, read-out: Tmax): 1.5 h
Tmax ([1]; atomoxetine with paroxetine versus atomoxetine alone, read-out: median of the paired difference in Tmax): 0.5 h
AUC [1]: 5970 ng·h/mL
Vd/F [1]: 0.803 L/kg
SMILES: CNCC[C@@H](Oc1ccccc1C)c1ccccc1 [Atomoxetine, (R)-(−)-N-methyl-3-(2-methylphenoxy)-3-phenylpropylamine]
response to atomoxetine treatment (ADHD; poor metabolizer ADHD patients): greater response
efficacy in the treatment of ADHD versus placebo (ADHD; regardless of CYP2D6 status, extensive or poor metabolizer): robustly better than placebo
mean half-life ([2]; majority of patients): 4.5 ± 1.1 h
half-life ([2]; two patients (second class of kinetic disposition)): 17.1 h and 21 h
